Laboratory results as given in patent US5914319A, “Antithrombotic agents” (Eli Lilly and Company, priority 1995, dated 1999).
Where a name gives a salt, the structure may show the parent alone.

Legend:
Format in all cases: biochemical
Human plasma [1] = assay: Human plasma anticoagulation, activated partial thromboplastin time (APTT); conditions: concentration required to double the APTT, linear extrapolation
Protocol: (§1) Dog plasma and rat plasma is obtained from conscious mixed-breed hounds (either sex, Hazelton-LRE, Kalamazoo, Mich., U.S.A.) or from anesthetized male Sprague-Dawley rats (Harlan Sprague-Dawley, Inc., Indianapolis, Ind., U.S.A.) by venipuncture into 3.8 percent citrate. Fibrinogen is prepared from in-date ACD human blood as the fraction I-2 according to previous procedures and specifications. […] Human fibrinogen is also purchased as 98 percent pure/plasmin free from American Diagnostica, Greenwich, Conn. Coagulation reagents ACTIN, Thromboplastin, and Human plasma are from Baxter Healthcare Corp., Dade Division, Miami, Fla. Bovine thrombin from Parke-Davis ([…], Mich.) is used for coagulation assays in plasma.
(§2) Coagulation assay procedures are as previously described. […] A CoAScreener coagulation instrument (American LABor, Inc.) is used for all coagulation assay measurements. The prothrombin time (PT) is measured by adding 0.05 mL saline and 0.05 mL Thromboplastin-C reagent to 0.05 mL test plasma. The activated partial thromboplastin time (APTT) is measured by incubation of 0.05 mL test plasma with 0.05 mL Actin reagent for 120 seconds followed by 0.05 mL CaCl2 (0.02M). The thrombin time (TT) is measured by adding 0.05 mL saline and 0.05 mL thrombin (10 NIH units/mL) to 0.05 mL test plasma. The compounds of Formula I are added to human or animal plasma over a wide range of concentrations to determine prolongation effects on the APTT, PT, and TT assays. Linear extrapolations are performed to estimate the concentrations required to double the clotting time for each assay.

Human plasma [2] = assay: Human plasma anticoagulation, prothrombin time (PT); conditions: concentration required to double the PT, linear extrapolation
Protocol: as §1, §2

Human plasma [3] = assay: Human plasma anticoagulation, thrombin time (TT); conditions: concentration required to double the thrombin time, linear extrapolation
Protocol: as §1, §2

1-Piq-Pro-p-NHCH2 C6 H4 C(NH)NH2.2HCl [Example 18]
Human Plasma Anticoagulation 2× Clotting time (ng/mL) APTT (Human plasma [1]): 79 ng/mL
Human Plasma Anticoagulation 2× Clotting time (ng/mL) PT (Human plasma [2]): 170 ng/mL
Human Plasma Anticoagulation 2× Clotting time (ng/mL) TT (Human plasma [3]): 7 ng/mL

Cl.NC(N)=NC/C=C/CNC(=O)[C@@H]1CCCN1C(=O)[C@H](N)Cc1ccccc1 (relative stereo) [Example 8, D-Phe-Pro-NHCH2 -trans-CH=CHCH2 NHC(NH)NH2.HCl]
Human Plasma Anticoagulation 2× Clotting time (ng/mL) TT (Human plasma [3]): 130 ng/mL

Cl.NC[C@H]1CC[C@H](CNC(=O)[C@@H]2CCCN2C(=O)[C@H](N)Cc2ccccc2)CC1 (relative stereo) [Example 12, D-Phe-Pro-NHCH2 -trans-4-(aminomethyl)cyclohexane.HCl]
Human Plasma Anticoagulation 2× Clotting time (ng/mL) TT (Human plasma [3]): 1,700 ng/mL

N=C(N)c1ccc(CNC(=O)[C@@H]2C[C@H](Oc3ccccc3)CN2C(=O)[C@H]2CCCCN2)cc1 (relative stereo) [Example 22, D-hPro-Pro(4-cis-PhO)-p-NHCH2 C6 H4 C(NH)NH2.2HCl]
Human Plasma Anticoagulation 2× Clotting time (ng/mL) APTT (Human plasma [1]): 2,300 ng/mL
Human Plasma Anticoagulation 2× Clotting time (ng/mL) PT (Human plasma [2]): 1,000 ng/mL
Human Plasma Anticoagulation 2× Clotting time (ng/mL) TT (Human plasma [3]): 170 ng/mL

N=C(N)c1ccc(CNC(=O)[C@@H]2C[C@@H]3CCCC[C@@H]3N2C(=O)[C@H]2C[C@H]3CCCC[C@H]3CN2)cc1 (relative stereo) [Example 43, D-3-Piq-cis-Ohi-p-NHCH2 C6 H4 C(NH)NH2.2HCl]
Human Plasma Anticoagulation 2× Clotting time (ng/mL) APTT (Human plasma [1]): 1,100 ng/mL
Human Plasma Anticoagulation 2× Clotting time (ng/mL) PT (Human plasma [2]): 930 ng/mL
Human Plasma Anticoagulation 2× Clotting time (ng/mL) TT (Human plasma [3]): 280 ng/mL

CCS(=O)(=O)N[C@H](Cc1ccccc1)C(=O)N1[C@H](C(=O)NCc2ccc(C(=N)N)cc2)C[C@@H]2CCCC[C@@H]21 (relative stereo) [Example 45, EtSO2 -Phe-cis-Ohi-p-NHCH2 C6 H4 C(NH)NH2.HCl]
Human Plasma Anticoagulation 2× Clotting time (ng/mL) APTT (Human plasma [1]): 200 ng/mL
Human Plasma Anticoagulation 2× Clotting time (ng/mL) PT (Human plasma [2]): 330 ng/mL
Human Plasma Anticoagulation 2× Clotting time (ng/mL) TT (Human plasma [3]): 8 ng/mL

N=C(N)c1ccc(CNC(=O)[C@@H]2C[C@@H]3CCCC[C@@H]3N2C(=O)[C@@H](Cc2ccccc2)NCC(=O)O)cc1 (relative stereo) [Example 47, HOOCCH2 -D-Phe-cis-Ohi-p-NHCH2 C6 H4 C(NH)NH2.HCl]
Human Plasma Anticoagulation 2× Clotting time (ng/mL) APTT (Human plasma [1]): 140 ng/mL
Human Plasma Anticoagulation 2× Clotting time (ng/mL) PT (Human plasma [2]): 270 ng/mL
Human Plasma Anticoagulation 2× Clotting time (ng/mL) TT (Human plasma [3]): 12. ng/mL

CCS(=O)(=O)N[C@H](CC1CCCCC1)C(=O)N1CCC[C@H]1C(=O)NCCCCN=C(N)N.Cl [Example 2, EtSO2 -D-Cha-Pro-Agm.HCl]
Human Plasma Anticoagulation 2× Clotting time (ng/mL) TT (Human plasma [3]): 170 ng/mL

CCOC(=O)N[C@H](Cc1ccccc1)C(=O)N1CCC[C@H]1C(=O)NCCCCN=C(N)N.Cl [Example 3, EtOCO-D-Phe-Pro-Agm.HCl]
Human Plasma Anticoagulation 2× Clotting time (ng/mL) TT (Human plasma [3]): 590 ng/mL

N=C(N)NCCCCCCNC(=O)[C@@H]1CCCN1C(=O)[C@H](N)Cc1ccccc1 [Example 5, D-Phe-Pro-NH(CH2)6 NHC(NH)NH2.HCl]
Human Plasma Anticoagulation 2× Clotting time (ng/mL) TT (Human plasma [3]): 30,000 ng/mL

N=C(N)NCCCCCNC(=O)[C@@H]1CCCN1C(=O)[C@H](N)Cc1ccccc1 [Example 6, D-Phe-Pro-NH(CH2)5 NHC(NH)NH2.HCl]
Human Plasma Anticoagulation 2× Clotting time (ng/mL) TT (Human plasma [3]): 390 ng/mL

N=C(N)NCCCNC(=O)[C@@H]1CCCN1C(=O)[C@H](N)Cc1ccccc1 [Example 7, D-Phe-Pro-NH(CH2)3 NHC(NH)NH2.HCl]
Human Plasma Anticoagulation 2× Clotting time (ng/mL) TT (Human plasma [3]): 490 ng/mL

N=C(N)NCc1ccc(CNC(=O)[C@@H]2CCCN2C(=O)[C@H](N)Cc2ccccc2)cc1 [Example 9, D-Phe-Pro-p-NHCH2 C6 H4 CH2 NHC(NH)NH2.2TFA]
Human Plasma Anticoagulation 2× Clotting time (ng/mL) TT (Human plasma [3]): > 91,000 ng/mL

NCc1ccc(CNC(=O)[C@@H]2CCCN2C(=O)[C@H](N)Cc2ccccc2)cc1 [Example 10, D-Phe-Pro-p-NHCH2 C6 H4 CH2 NH2.HCl]
Human Plasma Anticoagulation 2× Clotting time (ng/mL) TT (Human plasma [3]): 420 ng/mL

Cl.NCc1cccc(CNC(=O)[C@@H]2CCCN2C(=O)[C@H](N)Cc2ccccc2)c1 [Example 11, D-Phe-Pro-m-NHCH2 C6 H4 CH2 NH2.HCl]
Human Plasma Anticoagulation 2× Clotting time (ng/mL) TT (Human plasma [3]): 8,800 ng/mL

Nc1ccc(CNC(=O)[C@@H]2CCCN2C(=O)[C@H](N)Cc2ccccc2)cc1 [Example 13, D-Phe-Pro-p-NHCH2 C6 H4 NH2.HCl]
Human Plasma Anticoagulation 2× Clotting time (ng/mL) TT (Human plasma [3]): 660 ng/mL

Cl.Nc1ccc(CCNC(=O)[C@@H]2CCCN2C(=O)[C@H](N)Cc2ccccc2)cc1 [Example 14, D-Phe-Pro-p-NHCH2 CH2 C6 H4 NH2.HCl]
Human Plasma Anticoagulation 2× Clotting time (ng/mL) TT (Human plasma [3]): 21,000 ng/mL

Cl.N=C(N)c1cccc(CNC(=O)[C@@H]2CCCN2C(=O)[C@H](N)Cc2ccccc2)c1 [Example 16, D-Phe-Pro-m-NHCH2 C6 H4 C(NH)NH2.0.75HCl]
Human Plasma Anticoagulation 2× Clotting time (ng/mL) APTT (Human plasma [1]): 8,600 ng/mL
Human Plasma Anticoagulation 2× Clotting time (ng/mL) PT (Human plasma [2]): 8,500 ng/mL
Human Plasma Anticoagulation 2× Clotting time (ng/mL) TT (Human plasma [3]): 650 ng/mL

N=C(N)c1ccc(CNC(=O)[C@@H]2CCCN2C(=O)[C@H]2C[C@H]3CCCC[C@H]3CN2)cc1 [Example 19, D-3-Piq-Pro-p-NHCH2 C6 H4 C(NH)NH2.3HCl]
Human Plasma Anticoagulation 2× Clotting time (ng/mL) APTT (Human plasma [1]): 300 ng/mL
Human Plasma Anticoagulation 2× Clotting time (ng/mL) PT (Human plasma [2]): 540 ng/mL
Human Plasma Anticoagulation 2× Clotting time (ng/mL) TT (Human plasma [3]): 58 ng/mL

CCS(=O)(=O)N[C@H](Cc1ccccc1)C(=O)N1CCC[C@H]1C(=O)NCc1cccc(C(=N)N)c1 [Example 24, EtSO2 -D-Phe-Pro-m-NHCH2 --C6 H4 C(=NH)NH2.HCl]
Human Plasma Anticoagulation 2× Clotting time (ng/mL) APTT (Human plasma [1]): 25,900 ng/mL
Human Plasma Anticoagulation 2× Clotting time (ng/mL) PT (Human plasma [2]): 25,000 ng/mL
Human Plasma Anticoagulation 2× Clotting time (ng/mL) TT (Human plasma [3]): 1,000 ng/mL

N=C(N)c1cccc(CNC(=O)[C@@H]2CCCN2C(=O)[C@@H]2NCC[C@@H]3CCCC[C@@H]32)c1 [Example 25, D-1-Piq-Pro-m-NHCH2 --C6 H4 C(=NH)NH2.HCl]
Human Plasma Anticoagulation 2× Clotting time (ng/mL) APTT (Human plasma [1]): 34,600 ng/mL
Human Plasma Anticoagulation 2× Clotting time (ng/mL) PT (Human plasma [2]): 40,400 ng/mL
Human Plasma Anticoagulation 2× Clotting time (ng/mL) TT (Human plasma [3]): 1,430 ng/mL

CCS(=O)(=O)N[C@H](Cc1ccccc1)C(=O)N1CCC[C@H]1C(=O)NCCc1ccc(C(=N)N)cc1 [Example 26, EtSO2 -D-Phe-Pro-p-NHCH2 CH2 --C6 H4 C(=NH)NH2.HCl]
Human Plasma Anticoagulation 2× Clotting time (ng/mL) APTT (Human plasma [1]): 870 ng/mL
Human Plasma Anticoagulation 2× Clotting time (ng/mL) PT (Human plasma [2]): 750 ng/mL
Human Plasma Anticoagulation 2× Clotting time (ng/mL) TT (Human plasma [3]): 37 ng/mL

CCS(=O)(=O)N[C@H](Cc1ccccc1)C(=O)N1CCC[C@H]1C(=O)NCCc1cccc(C(=N)N)c1.Cl [Example 27, EtSO2 -D-Phe-Pro-m-NHCH2 CH2 --C6 H4 C(=NH)NH2.HCl]
Human Plasma Anticoagulation 2× Clotting time (ng/mL) APTT (Human plasma [1]): 27,800 ng/mL
Human Plasma Anticoagulation 2× Clotting time (ng/mL) PT (Human plasma [2]): 27,000 ng/mL
Human Plasma Anticoagulation 2× Clotting time (ng/mL) TT (Human plasma [3]): 1,940 ng/mL

N=C(N)c1ccc(CCNC(=O)[C@@H]2CCCN2C(=O)[C@@H]2NCC[C@@H]3CCCC[C@@H]32)cc1 [Example 28, 1-Piq-Pro-p-NHCH2 CH2 --C6 H4 C(=NH)NH2.2HCl]
Human Plasma Anticoagulation 2× Clotting time (ng/mL) APTT (Human plasma [1]): 8,100 ng/mL
Human Plasma Anticoagulation 2× Clotting time (ng/mL) PT (Human plasma [2]): 8,300 ng/mL
Human Plasma Anticoagulation 2× Clotting time (ng/mL) TT (Human plasma [3]): 520 ng/mL

N=C(N)c1cccc(CCNC(=O)[C@@H]2CCCN2C(=O)[C@@H]2NCC[C@@H]3CCCC[C@@H]32)c1 [Example 29, 1-Piq-Pro-m-NHCH2 CH2 --C6 H4 C(=NH)NH2.2HCl]
Human Plasma Anticoagulation 2× Clotting time (ng/mL) APTT (Human plasma [1]): 9,800 ng/mL
Human Plasma Anticoagulation 2× Clotting time (ng/mL) PT (Human plasma [2]): 15,800 ng/mL
Human Plasma Anticoagulation 2× Clotting time (ng/mL) TT (Human plasma [3]): 750 ng/mL

Nc1ccc(CNC(=O)[C@@H]2CCCN2C(=O)[C@@H](CC2CCCCC2)NCC(=O)O)cc1 [Example 62, HO2 CCH2 -D-Cha-Pro-4-NHCH2 C6 H4 NH2.HCl]
Human Plasma Anticoagulation 2× Clotting time (ng/mL) TT (Human plasma [3]): 54 ng/mL

Nc1ccc(CCNC(=O)[C@@H]2CCCN2C(=O)[C@@H](CC2CCCCC2)NCC(=O)O)cc1 [Example 63, HO2 CCH2 -D-Cha-Pro-4-NHCH2 CH2 C6 H4 NH2.HCl]
Human Plasma Anticoagulation 2× Clotting time (ng/mL) TT (Human plasma [3]): 680 ng/mL

Cl.N=C(N)c1cc(CNC(=O)[C@@H]2CCCN2C(=O)[C@@H](CC2CCCCC2)NCC(=O)O)cs1 [Example 65, HO2 CCH2 -D-Cha-Pro-4-NHCH2 -2-amidinothiophene.HCl]
Human Plasma Anticoagulation 2× Clotting time (ng/mL) APTT (Human plasma [1]): 48 ng/mL
Human Plasma Anticoagulation 2× Clotting time (ng/mL) TT (Human plasma [3]): 1 ng/mL

D-Phe-Pro-p-NHCH2 C6 H4 C(NH)NH2.HCl [Example 15]
Human Plasma Anticoagulation 2× Clotting time (ng/mL) APTT (Human plasma [1]): 89 ng/mL
Human Plasma Anticoagulation 2× Clotting time (ng/mL) TT (Human plasma [3]): 9 ng/mL
